Results as given in patent US11730826B2, “Amphiphilic nanoparticles for delivery of CRISPR based therapy” (Massachusetts Institute of Technology, priority 2016, dated 2023).

What was measured:
s-SMAD4 [1] = test: Reactions of sgRNA with anticancer agents by MALDI/TOF MS; settings: for time at which RNA adducts were formed: excess agent; for adducts in the RNA macromolecule: 24 h of incubation
Protocol: Determination of the reactions of sgRNA with anticancer agents by MALDI/TOF MS: A 20-mer of RNA comprising the seed region of SMAD4 sgRNA (s-SMAD4) was mixed with Pt(II), Pt(IV)-COOH, doxorubicin, gemcitabine, camptothecin or melphalan at a molar ratio of 1:10 in RNase free water (RNA final concentration (10 μM); small molecule (100 μM)). The reaction mixture was shaken in a 37° C. incubator for a prescribed time interval (30 min, 1 h, 3 h, 6 h, 9 h, 12 h, or 24 h); and, 10 μL of each solution was analyzed by MALDI/TOF MS (positive mode), employing hydroxipicolinic acid as the matrix.

s-SMAD4 [2] = test: Kinetics of Pt-RNA adduct formation by AAS
BCL-2 siRNA [3] = test: siRNA binding with platinum species by MALDI-TOF-MS; settings: 10-fold excess of platinum species
Protocol: A single-stranded siRNA (UCAGGUACUCAGUCAUCCACATT) was mixed with OxaPt(II) at a molar ratio of 1:10 in RNAase free water (RNA final concentration: 50 μM; Pt final concentration: 500 μM; total volume: 100 μL). The reaction mixture was placed in a 37° C. incubator and 10 μL of sample were removed at various time points to obtain MALDI-TOF-MS spectra (positive model). Analogous methods were employed to obtain spectra of the reaction products of siRNA with OxaPt(IV), CisPt(II) and CisPt(IV).

Cytoplasmic RNA = settings: upon intracellular uptake; cited from earlier work
s-SMAD4 [4] = test: PicoGreen based melting temperature assay of s-SMAD4/ss-DNA heterodimer
Protocol: The Tm of the unreacted 20-mer and the ss-DNA (41° C.) resembled the calculated Tm of the heterodimer of the native SMAD4 sgRNA with DNA (43° C.).

SMAD4 sgRNA = test: Activity of sgRNA after incubation with small molecule anticancer agents (WB in Cas9-expressing SKOV3 cells); format: cell-based, human; settings: for suppression of SMAD4 protein by sgRNA after coincubation: 12 h of coincubation, effective = levels <30% of baseline; for effect of co-incubation on SMAD4 sgRNA suppression: up to 24 h prior to transfection
Protocol: Activity of sgRNA after incubation with various small molecule anticancer agents: To determine the effects of platination or alkylation of sgRNA on silencing efficiency, SMAD4 sgRNA was first pre-incubated with various small molecules including Pt(II), Pt(IV)-COOH, doxorubicin, gemcitabine, camptothecin, or melphalan for either 12 h or 24 h, at 37° C., and at a drug to sgRNA molar ratio of 10:1 in RNase free water. The sgRNA was then purified by […] (Mw=3 kDa) and quantified by Nanodrop. The RNAi-MAX (Invitrogen, Thermo-fisher, USA) was utilized to transfect the reacted sgRNA (10 nM) into Cas9-expressing SKOV3 cells in 6-well plates. After 72 h, protein was recovered from cell lysates and analyzed by WB to quantify SMAD4 and GAPDH (product of a house-keeping gene; control) levels with respect to those of untreated cells. In addition, to compare the effects of Pt(II) and Pt(IV)-COOH interference with sgRNA-mediated recognition and target gene silencing by Cas9, various incubation periods were examined (i.e. 3, 6, and 9 h).

5′-GMP = 5′-GMP binding with platinum species by 1HNMR
Protocol: The binding kinetics of 5′-GMP to each platinum species were determined by measuring the relative amounts of free and Pt-bound 5′-GMP at each time point, integrating the ratio of the ^1HNMR peaks at 8.5 ppm to 8.09 ppm.

BCL-2 siRNA [5] = test: Silencing activity of BCL-2 siRNA preincubated with platinum species (qRT-PCR); format: cell-based; settings: MCF-7 cells, RT-qPCR 48 h after transfection, pre-incubation 1 vs. 12 h
Protocol: 48 hours after transfection, total RNA was isolated using an RNeasy mini-kit (Qiagen, Germantown, Md.) and quantified by NanoDrop. 300 ng of mRNA were subsequently subjected to qRT-PCR analysis, targeting BCL-2 and glyceraldehyde 3-phosphate dehydrogenase (GAPDH) by using the SYBR Premix Ex (Takara, USA) and by using an Applied Biosystems StepOne Real-Time PCR System. Relative gene expression values were determined by the […] using StepOne Software v2.1 (Applied Biosystems). Data are presented as fold differences in […] normalized to GAPDH (house-keeping gene used as endogenous reference), employing a standard curve, and are reported relative to untreated (control) cells. The sequence of the primers used for BCL-2 and GAPDH are as follows: BCL-2 forward—5-[…]-3; Bcl-2 reverse—5-[…]-3; GAPDH forward—5-[…]-3; and GAPDH reverse primer—5-[…]-3 (Integrated DNA Technology. IW, USA). The specificity of each set of primers was verified by melting curve analysis.

Row | SMILES | earliest time Pt-siRNA adducts detected (BCL-2 siRNA [3]) | incubation time beyond which sgRNA was unable to prevent protein expression (SMAD4 sgRNA) [h] | suppression of SMAD4 protein by sgRNA after coincubation (SMAD4 sgRNA) | adducts in the RNA macromolecule (s-SMAD4 [1]) | effect of co-incubation on SMAD4 sgRNA suppression (SMAD4 sgRNA) | other results
1 | N.N.[Cl][Pt][Cl] [CisPt(II), cisplatin] | ≤ 30 m | > 3 | unable to effectively suppress expression of SMAD4 protein | – | – | time at which RNA adducts were formed (s-SMAD4 [1]; aqueous solution, 37° C.): 30 min; Pt atoms bound per RNA macromolecule (s-SMAD4 [2]): up to 6; RNA platinated (s-SMAD4 [2]; incubated for 1 h with >10 μM): > 50%; apparent second-order rate constant (s-SMAD4 [2]; pseudo-first order kinetics): > 1e+07 M⁻¹ s⁻¹; concentrations of Pt-RNA adducts relative to Pt-DNA adducts (Cytoplasmic RNA): 5-6 times; heterodimerization of pretreated s-SMAD4 with ss-DNA (s-SMAD4 [4]): could not heterodimerize with ss-DNA at any temperature; formation of Pt(NH3)2(5′-GMP)2 adducts (5′-GMP; data not shown): rapid formation and time dependent increases
2 | O=C1[O][Pt]2([NH][C@@H]3CCCC[C@H]3[NH]2)[O]C1=O [OxaPt(II), Oxaliplatin] | 1 h | – | – | – | – | effect of incubation with siRNA on silencing efficiency (BCL-2 siRNA [5]): concentration and time-dependent decrease in silencing efficiency; DACHPt(5′-GMP)2 adducts as share of the total 5′-GMP pool (5′-GMP; over the first 6 h, 10 mM 5′-GMP, 5 mM Pt, 37° C.): > 40%
3 | CC[C@@]1(O)C(=O)OCc2c1cc1n(c2=O)Cc2cc3ccccc3nc2-1 [camptothecin] | – | – | – | no adducts were detected | did not alter the ability of SMAD4 sgRNA to effectively suppress expression levels | –
4 | COc1cccc2c1C(=O)c1c(O)c3c(c(O)c1C2=O)C[C@@](O)(C(=O)CO)C[C@@H]3O[C@H]1C[C@H](N)[C@H](O)[C@H](C)O1 [doxorubicin] | – | – | – | physical association multimers in non-covalent complexes with RNA | did not alter the ability of SMAD4 sgRNA to effectively suppress expression levels | –
5 | Nc1ccn([C@@H]2O[C@H](CO)[C@@H](O)C2(F)F)c(=O)n1 [gemcitabine] | – | – | – | no adducts were detected | did not alter the ability of SMAD4 sgRNA to effectively suppress expression levels | –
6 | N[C@@H](Cc1ccc(N(CCCl)CCCl)cc1)C(=O)O [melphalan] | – | > 6 | unable to effectively suppress expression of SMAD4 protein | – | – | time at which RNA adducts were formed (s-SMAD4 [1]): 60 min
